Source: the NIST ThermoML archive (doi:10.1021/je100909b)

Assay: mn = molality of the nth substance listed, in mol/kg
Conditions: 101 kPa, Liquid; for speed of sound: Sing-around technique in a fixed-path interferometer

NCC(=O)O [2-aminoacetic acid] + O
Conditions | speed of sound [m/s] | viscosity [mPa·s]
288.15 K, m1 = 0.05362 | 1468.9 | –
288.15 K, m1 = 0.06844 | – | 1.149
288.15 K, m1 = 0.1287 | 1473.1 | –
288.15 K, m1 = 0.1393 | – | 1.159
288.15 K, m1 = 0.191 | 1476.6 | –
288.15 K, m1 = 0.2522 | 1480.1 | –
288.15 K, m1 = 0.2552 | – | 1.176
288.15 K, m1 = 0.3423 | 1485.3 | –
288.15 K, m1 = 0.3468 | – | 1.19
288.15 K, m1 = 0.4241 | – | 1.202
288.15 K, m1 = 0.5002 | – | 1.213
288.15 K, m1 = 0.5062 | 1494.9 | –
288.15 K, m1 = 0.562 | 1498.1 | –
298.15 K, m1 = 0.05362 | 1499.5 | –
298.15 K, m1 = 0.06025 | – | 0.8979
298.15 K, m1 = 0.1223 | – | 0.9055
298.15 K, m1 = 0.1287 | 1503.4 | –
298.15 K, m1 = 0.191 | 1506.8 | –
298.15 K, m1 = 0.1933 | – | 0.9138
298.15 K, m1 = 0.2522 | 1510 | –
298.15 K, m1 = 0.2798 | – | 0.9248
298.15 K, m1 = 0.3423 | 1514.9 | –
298.15 K, m1 = 0.4145 | – | 0.942
298.15 K, m1 = 0.4859 | – | 0.9507
298.15 K, m1 = 0.5062 | 1523.9 | –
298.15 K, m1 = 0.562 | 1526.9 | –
308.15 K, m1 = 0.05362 | 1522.5 | –
308.15 K, m1 = 0.06295 | – | 0.7261
308.15 K, m1 = 0.1083 | 1525.3 | –
308.15 K, m1 = 0.1248 | – | 0.7325
308.15 K, m1 = 0.1664 | 1528.2 | –
308.15 K, m1 = 0.2476 | – | 0.7455
308.15 K, m1 = 0.263 | 1533.1 | –
308.15 K, m1 = 0.3345 | – | 0.7536
308.15 K, m1 = 0.3737 | 1538.8 | –
308.15 K, m1 = 0.4195 | – | 0.7624
308.15 K, m1 = 0.4709 | – | 0.7672
308.15 K, m1 = 0.4967 | 1545.2 | –
318.15 K, m1 = 0.05362 | 1539 | –
318.15 K, m1 = 0.06088 | – | 0.6017
318.15 K, m1 = 0.1248 | – | 0.6064
318.15 K, m1 = 0.1287 | 1542.7 | –
318.15 K, m1 = 0.191 | 1545.7 | –
318.15 K, m1 = 0.2476 | – | 0.6176
318.15 K, m1 = 0.2522 | 1548.7 | –
318.15 K, m1 = 0.3345 | – | 0.6253
318.15 K, m1 = 0.3423 | 1553.1 | –
318.15 K, m1 = 0.4195 | – | 0.6329
318.15 K, m1 = 0.4709 | – | 0.6356
318.15 K, m1 = 0.5062 | 1561.3 | –
318.15 K, m1 = 0.562 | 1564.1 | –

CCC(N)C(=O)O (stereo not drawn) [(.+-.)-α-aminobutyric acid] + O
Conditions | speed of sound [m/s] | viscosity [mPa·s]
288.15 K, m1 = 0.05062 | 1469.9 | –
288.15 K, m1 = 0.05106 | – | 1.159
288.15 K, m1 = 0.09089 | – | 1.181
288.15 K, m1 = 0.1107 | 1474.7 | –
288.15 K, m1 = 0.1764 | – | 1.22
288.15 K, m1 = 0.2175 | 1483.4 | –
288.15 K, m1 = 0.2253 | – | 1.242
288.15 K, m1 = 0.2685 | – | 1.262
288.15 K, m1 = 0.2738 | 1488 | –
288.15 K, m1 = 0.3587 | 1494.9 | –
288.15 K, m1 = 0.4044 | – | 1.324
288.15 K, m1 = 0.4523 | 1502.7 | –
298.15 K, m1 = 0.03245 | – | 0.8996
298.15 K, m1 = 0.05413 | – | 0.9064
298.15 K, m1 = 0.07577 | – | 0.9126
298.15 K, m1 = 0.108 | – | 0.9222
298.15 K, m1 = 0.1107 | 1505.2 | –
298.15 K, m1 = 0.1433 | – | 0.9326
298.15 K, m1 = 0.1888 | – | 0.9459
298.15 K, m1 = 0.2162 | – | 0.9534
298.15 K, m1 = 0.2175 | 1513.6 | –
298.15 K, m1 = 0.2738 | 1518 | –
298.15 K, m1 = 0.3587 | 1524.7 | –
298.15 K, m1 = 0.4523 | 1532.1 | –
308.15 K, m1 = 0.04831 | – | 0.731
308.15 K, m1 = 0.05062 | 1523.4 | –
308.15 K, m1 = 0.08861 | – | 0.7438
308.15 K, m1 = 0.1107 | 1527.7 | –
308.15 K, m1 = 0.1735 | – | 0.7667
308.15 K, m1 = 0.2175 | 1535.4 | –
308.15 K, m1 = 0.2198 | – | 0.7794
308.15 K, m1 = 0.2655 | – | 0.7915
308.15 K, m1 = 0.2738 | 1539.4 | –
308.15 K, m1 = 0.3587 | 1545.5 | –
308.15 K, m1 = 0.3962 | – | 0.8261
308.15 K, m1 = 0.4523 | 1552.3 | –
318.15 K, m1 = 0.04911 | – | 0.6052
318.15 K, m1 = 0.05062 | 1539.9 | –
318.15 K, m1 = 0.08886 | – | 0.6122
318.15 K, m1 = 0.1107 | 1544 | –
318.15 K, m1 = 0.1735 | – | 0.6267
318.15 K, m1 = 0.2175 | 1551.2 | –
318.15 K, m1 = 0.2196 | – | 0.6354
318.15 K, m1 = 0.2658 | – | 0.6432
318.15 K, m1 = 0.2738 | 1555.1 | –
318.15 K, m1 = 0.3587 | 1560.9 | –
318.15 K, m1 = 0.3964 | – | 0.6658
318.15 K, m1 = 0.4523 | 1567.3 | –

CC(N)C(=O)O (stereo not drawn) [DL-2-aminopropanoic acid] + O
Conditions | speed of sound [m/s] | viscosity [mPa·s]
288.15 K, m1 = 0.04982 | – | 1.153
288.15 K, m1 = 0.07777 | 1471.3 | –
288.15 K, m1 = 0.1109 | – | 1.172
288.15 K, m1 = 0.1126 | 1473.8 | –
288.15 K, m1 = 0.2059 | 1480.4 | –
288.15 K, m1 = 0.2183 | – | 1.204
288.15 K, m1 = 0.2612 | – | 1.217
288.15 K, m1 = 0.3107 | – | 1.231
288.15 K, m1 = 0.3139 | 1488.1 | –
288.15 K, m1 = 0.3825 | 1493 | –
288.15 K, m1 = 0.4409 | 1497.2 | –
288.15 K, m1 = 0.4536 | – | 1.272
288.15 K, m1 = 0.5099 | – | 1.29
298.15 K, m1 = 0.07777 | 1501.8 | –
298.15 K, m1 = 0.07866 | – | 0.9082
298.15 K, m1 = 0.1126 | 1504.1 | –
298.15 K, m1 = 0.1934 | – | 0.9331
298.15 K, m1 = 0.2059 | 1510.4 | –
298.15 K, m1 = 0.3139 | 1517.7 | –
298.15 K, m1 = 0.3188 | – | 0.9584
298.15 K, m1 = 0.3825 | 1522.3 | –
298.15 K, m1 = 0.4275 | – | 0.9832
298.15 K, m1 = 0.4409 | 1526.3 | –
298.15 K, m1 = 0.5485 | – | 1.013
298.15 K, m1 = 0.593 | – | 1.018
298.15 K, m1 = 0.7354 | – | 1.057
298.15 K, m1 = 0.8417 | – | 1.072
298.15 K, m1 = 0.9533 | – | 1.089
308.15 K, m1 = 0.04619 | – | 0.7279
308.15 K, m1 = 0.07777 | 1524.6 | –
308.15 K, m1 = 0.107 | – | 0.7391
308.15 K, m1 = 0.1126 | 1526.7 | –
308.15 K, m1 = 0.2059 | 1532.4 | –
308.15 K, m1 = 0.2145 | – | 0.7583
308.15 K, m1 = 0.2578 | – | 0.7656
308.15 K, m1 = 0.3071 | – | 0.7745
308.15 K, m1 = 0.3139 | 1539.1 | –
308.15 K, m1 = 0.3489 | – | 0.7816
308.15 K, m1 = 0.3825 | 1543.4 | –
308.15 K, m1 = 0.4409 | 1547 | –
308.15 K, m1 = 0.4983 | – | 0.8076
318.15 K, m1 = 0.04529 | – | 0.6029
318.15 K, m1 = 0.07777 | 1540.9 | –
318.15 K, m1 = 0.1064 | – | 0.6119
318.15 K, m1 = 0.1126 | 1542.8 | –
318.15 K, m1 = 0.2059 | 1548.2 | –
318.15 K, m1 = 0.2141 | – | 0.6275
318.15 K, m1 = 0.2564 | – | 0.6331
318.15 K, m1 = 0.3064 | – | 0.6409
318.15 K, m1 = 0.3139 | 1554.4 | –
318.15 K, m1 = 0.3492 | – | 0.647
318.15 K, m1 = 0.3825 | 1558.4 | –
318.15 K, m1 = 0.4205 | – | 0.6561
318.15 K, m1 = 0.4409 | 1561.8 | –
